Reference: patent US12383534B2, “Methods for treating cancer” (REGENTS OF THE UNIVERSITY OF MINNESOTA, priority 2021, dated 2025)

Assays:
DUX4 = conditions: cited from earlier work
[1] = tested on: CIC-DUX4 induced transcriptome in NCC-CDS-X1 cells; test: RNA-seq transcriptional profile of NCC-CDS-X1 cells; type: cell-based, human; conditions: for number of genes changed by more than 10-fold / number of down-regulated genes (2-fold or greater) / number of up-regulated genes (2-fold or greater): 0.3 μM
Procedure: RNA was extracted using an RNA extraction kit (Zymo) and cDNA was made using 0.5 μg total RNA with oligo-dT primer and Verso cDNA Synthesis Kit (Thermo Scientific) following the manufacturer's instructions. qPCRs were performed by using Premix Ex Taq (Probe qPCR, Takara) or SYBR-green. Gene expression levels were normalized to that of GAPDH and analyzed with 7500 System Software using the ACT method (Applied Biosystems). RNA-seq library preparation was done with 500 ng total RNA from NCC-CDS-X1 cells treated for 4 or 24 hours with iP300w (0.3 μM) using the Swift Rapid RNA Library Kit (SwiftBioscience). 36 base paired-end sequencing was performed on an Illumina NextSeq instrument at the University of Minnesota Genomics Center.
Paired-end Illumina sequencing reads were trimmed with TrimGalore (0.6.0) and transcript abundance was quantified using the human Gencode annotations (v34) using Salmon (v 1.2.1) with the GC-bias correction option. Counts were imported into R (v 4.0.2) using tximeta (v 1.6.3). Differentially expressed genes were identified with DESeq2 (v 1.28.1) and figures were made with the ComplexHeatmap (v 2.4.3), clusterProfiler (v 3.16.1) and ggplot2 (v 3.3.2) R packages. Sequencing reads and processed data have been deposited into GEO under the accession number GSE165729.
Next, global transcriptional profiles of NCC-CDS-X1 cells treated with iP300w were investigated. […] Among these differentially expressed genes, 170 and 244 were changed by more than 10-fold at 4 hour and 24 hours, respectively (FIG. 3A).

[2] = tested on: global H3K18 and H3K27 acetylation; test: Western blot for H3 acetylation markers in Kitra-SRS cells; type: cell-based, human; conditions: 18 hours
Procedure: For western blot analyses, cells were lysed with RIPA buffer supplemented with protease inhibitor cocktail (Complete, Roche), and proteins were separated on 10% SDS-PAGE gels, then transferred to PVDF membranes. Antibodies were diluted in 5% skim milk in TBST and incubated overnight at 4° C. or 1 hour at RT. An appropriate secondary HRP conjugated antibody was incubated for 1 hour at RT. Membranes were then washed with TBST, and signal was visualized using Pierce ECL western blotting substrate (Thermo Scientific). For immunofluorescence, cells cultured in 96 well plates were fixed in 4% PFA for 10 min., washed twice with PBS, permeabilized with 0.3% Triton X for 30 min, and blocked with 3% BSA for 1 hour at R/T. Primary antibodies were diluted in 3% BSA and incubated o/n at 4° C. An appropriate conjugated secondary antibody was applied for 60 min at RT. Nuclei were visualized using DAPI (1:5000, Sigma). […]

[3] = tested on: Panc1, MiaPaca2, CFPac1 pancreatic cancer cells; test: Cell viability (ATP) assay in pancreatic cancer cells; type: cell-based; conditions: serial dilutions, 48 hours
Procedure: Cell lines were plated in a 96 well dish (1×10^5 cells/well), and the following day were treated with iP300w or its stereoisomers. ATP assays were performed using CellTiter-Glo® Luminescent Cell Viability Assay (Promega) according to the manufacturer's instructions. Luminescence was analyzed on POLARstar Optima Microplate Reader (BMG Labtech, Offenburg, Germany).
Pancreatic and colorectal cancer cell lines were treated with iP300w to further distinguish its specificity to CDS from general cytotoxicity. p300/CBP have been correlated with the invasive and migratory properties of pancreatic and colorectal cancers (Iyer, N. G. et al., Proceedings of the National Academy of Sciences of the United States of America 101, 7386-7391 (2004); and Paladino, D. et al, Oncotarget 7, 7253-7267 (2016)). […] This further supports the specific efficacy of iP300w against cancers bearing p300-dependent oncogenic fusion transcription factors (such as CIC-DUX4), vis-à-vis cancers that may show some degree of growth inhibition by iP300w due simply to p300-dependent proliferative pathways.

LCHN-Myoblast = test: ATP assay on LCHN-Myoblast; type: cell-based, human; conditions: after 3 days of treatment (FIG. 10C)
Procedure: Basal media were purchased from HyClone, fetal bovine serum (FBS) was from PeakSerum (Ps-FB3, lot 293Q16), and Glutamax (Glu) and Penicillin/Streptomycin (P/S) were from GIBCO. NCC-CDS-X1 (CIC-DUX4 sarcoma cell line, a generous gift from Tadashi Kondo) cell line was cultured in RPMI with 10% FBS, Glu and P/S, Kitra-SRS (CIC-DUX4 sarcoma cell line, a generous gift from Hidetatsu Otani), 3T3, 293T and C2C12 cell lines were cultured in DMEM/10% FBS/Glu/P/S. The immortalized human myoblast LHCN-M2 cell line was cultured in proliferation medium: F10 supplemented with 20% FBS, 2-mercaptoethanol 1× (GIBCO), 10^−9 M dexamethasone (Sigma), 10 ng/mL bFGF (Peprotech), and Glu/P/S. All cells were cultured at 37° C. in a 5% CO2 atmosphere.
Cell lines were plated in a 96 well dish (1×10^5 cells/well), and the following day were treated with iP300w or its stereoisomers. ATP assays were performed using CellTiter-Glo® Luminescent Cell Viability Assay (Promega) according to the manufacturer's instructions. Luminescence was analyzed on POLARstar Optima Microplate Reader (BMG Labtech, Offenburg, Germany). […]

CNC(=O)Cn1cc(-c2ccc3c(c2)[C@H](F)C[C@]32NC(=O)N(CC(=O)N(Cc3ccc(F)cc3)[C@@H](C)C(F)(F)F)C2=O)cn1 (single isomer, unassigned) [iP300w]
effect on cell death caused by full length DUX4 (DUX4): cell death was prevented
effect on gene expression changes caused by DUX4 (DUX4): ability to reverse gene expression changes caused by DUX4
number of genes changed by more than 10-fold ([1]; 4 hour): 170 genes
number of down-regulated genes (2-fold or greater) ([1]; 4 hours post-treatment): 1182 genes
number of up-regulated genes (2-fold or greater) ([1]; 4 hours post-treatment): 872 genes
number of genes changed by more than 10-fold ([1]; 24 hours): 244 genes
number of down-regulated genes (2-fold or greater) ([1]; 24 hours post-treatment): 2042 genes
number of up-regulated genes (2-fold or greater) ([1]; 24 hours post-treatment): 1658 genes
effect on p21 (CDKN1A) expression ([1]; 24 hours): upregulated in the 24 hours
effect on key transformation-regulatory genes ETV1, ETV4 and CCNE1 ([1]; set of 165 CIC-DUX4 targets, 4 hours): significantly downregulated within 4 hours
effect on CIC-DUX4 targets ([1]; set of 165 CIC-DUX4 targets, 24 hours): vast majority of CIC-DUX4 targets to be downregulated
effect on global H3K18 and H3K27 acetylation [2]: reduces global H3K18 and H3K27 acetylation
effect on cell viability [3]: no significant effect on cell viability
concentration giving mild suppression of proliferation (LCHN-Myoblast): ≥ 0.3 µM
